Experimental data as given in US9453005B2, “Inhibition of influenza M2 proton channel” (The Trustees Of The University Of Pennsylvania, priority 2008, dated 2016).
Where two headings read alike, the source gives them in different places.

Target: AM2 (Influenza A virus, UniProt P0DOF5)
Experiment: biochemical
Assay type: biochemical
Settings: for % Activity: AM2; for change of potency on replacing or installing the head group: compared with the parent compound (BL-1743; 12 for 13)

AM2, sequence (P0DOF5 whole entry): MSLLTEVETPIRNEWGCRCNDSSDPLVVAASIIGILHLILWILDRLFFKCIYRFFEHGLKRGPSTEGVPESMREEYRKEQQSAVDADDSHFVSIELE

Structure (SMILES)	% Activity	change of potency on replacing or installing the head group	further results
C1CCC2CN(C3=NCCN3)CCC2C1 (mixture of isomers) [Compound 15, 2-(octahydroisoquinolin-2(1H)-yl)-4,5-dihydro-1H-imidazol-1-ium iodide]			IC50: 29.5 µM
CN1CCC2(CCCCC2)CC1.Cl [Compound 3, 3-methyl-3-azoniaspiro[5.5]undecane chloride]	7%		IC50 (Table 1, read-out: IC50): 20.6 µM
NC(=O)N1CCC2(CCCCC2)CC1 [Compound 4, 3-Aza-spiro[5.5]undecane-3-carboxylic acid amide]	30%	no improvement of potency	
NC(=S)N1CCC2(CCCCC2)CC1 [Compound 5, 3-Aza-spiro[5,5]undecane-3-carbothioic acid amide]	60%	no improvement of potency	
NS(=O)(=O)N1CCC2(CCCCC2)CC1 [Compound 6, 3-Aza-spiro[5,5]undecane-3-sulfonic acid amide]	6 (14%)	Increases of potency	IC50 (Table 1, read-out: IC50): 15.3 µM
N=C(N)N1CCC2(CCCCC2)CC1 [Compound 7, 3-Aza-spiro[5,5]undecane-3-carboxamidine]	13%	Increases of potency	IC50 (Table 1, read-out: IC50): 22.8 µM
NC1CCC2(CCCCC2)CC1 [Compound 8, Spiro[5.5]undec-3-ylamine]	11%		
O=C1CCCC(=O)C12CCNCC2 [Compound 10, 3-Aza-spiro[5.5]undecane-7,11-dione]	100%		IC50 (SAR of BL-1743, read-out: IC50): > 100 µM; activity at 100 μM (at 100 μM tested): no activity
S=C1CCCC(=S)C12CCNCC2 [Compound 11, 3-Aza-spiro[5.5]undecane-7,11-dithione]	12%		IC50 (SAR of BL-1743, read-out: IC50): 37.6 µM
C1CCC2(C1)CCNCC2 [Compound 12, 8-Aza-spiro[4.5]decane]	12 (16.2%)		IC50 (Table 1, read-out: IC50): 8.14 µM
C1CCC2(C1)CCN(C1=NCCN1)CC2 [Compound 13, 8-(4,5-Dihydro-1H-imidazol-2-yl)-8-aza-spiro[4.5]decane]		detrimental to the activity	
NC1CC2CC1C1CCCC21 (stereo not drawn) [Compound 16, tricyclo[5.2.1.0 2,6]dec-8-ylaminium chloride]			IC50: 15.3 µM
CNC1CC2CC1C1CCCC21 (stereo not drawn) [Compound 17, N-methyl-N-tricyclo[5.2.1.0 2,6]dec-8-ylaminium chloride]			IC50: 13.6 µM
OC(c1cnc[nH]1)N1CCC2(CCCCC2)CC1 (stereo not drawn) [Compound 19, (3-Aza-spiro[5.5]undec-3-yl)-(3H-imidazol-4-yl)-methanol]	30%		
CC1(C)CCNCC1.Cl [Compound 22, 4,4-Dimethyl-piperidine hydrochloride]	22 (55%)		
C1CCC2(CC1)CCNC2.Cl [Compound 23, 2-Aza-spiro[4.5]decane hydrochloride]	23 (6%)		
